From patent publication US9861647B2 (Prelief Inc., priority 2007, dated 2018)

Assays:
[1] = test system: human subject having a respiratory condition; test: Application of CGP (forced nasal lavage, spray/mist) to a human subject with post nasal drip, nasal obstruction and chronic cough; type: in vivo; conditions: one subject
Text: CGP was incorporated into samples of a lavage or a spray product at varying concentrations, along with different sweetening/moisturizing components (sorbitol, glycerin) at varying levels (0.5% to 7.5% by weight), appropriate food/drug grade fungistats and bacteristats (methyl paraben and benzalkonium chloride), and light flavorings of several types (peppermint, spearmint and orange) in some iterations.
A first human subject for laboratory/home trials was a person in good general health. […] The subject has experienced a decades-long post nasal drip (PND) as an adult, nasal obstruction (mucus, septum). The subject has experienced coughs that have been of weeks-long and, on occasion, months-long duration, following seasonal flu or colds. The subject has experienced chronic throat-clearing from PND and chronic cough even when not post-respiratory illness, which they ascribe to bronchitis. […] The subject breathed almost exclusively through mouth as a child because of nasal obstruction. The subject breathes through both nose and mouth as an adult, with breathing through nose occasionally mildly problematic, requiring active conscious engagement, although the subject was never “short of breath” in terms of lung capacity, etc.
The subject performed forced nasal lavage once daily for about two weeks. The forced nasal lavage was conducted intranasally over skin and normally in a shower. An aqueous solution or suspension of CGP at various concentration, such as about 7.5%, 3.75%, 2.5%, 2%, 1.5% by weight of dry CGP, was forced into one nostril and out of the other nostril using a closed plastic bottle with an internal stem feed. This procedure was repeated for each side of the nostrils. Some product was swallowed via nasal route and there was approx. 2 oz. fluid per nostril.
The subject applied CGP into their nostrils in a spray or a mist. A closed small plastic bottle with internal stem feed constructed to deliver fluid contents as mist was used. Typically, one application was performed in the morning. Each application consisted of two sprays per nostril, alternating sides, with full simultaneous deep breath inhalation or inspiration to draw the product up the nose and into the airway passages. The spray was also, on occasion, applied directly through the mouth to the throat with 1 or 2 sprays per application. An average spray delivery contained about 200 mg of a formulation of CGP per squeeze. The formulation contained about 2% to about 3.75% by weight of dry CGP.
In addition to the routine application of CGP to prevent or control symptoms associated with the respiratory system, the subject has also used CGP to relieve symptoms during an episode of a condition of airway/upper respiratory tract. […] At about 10:45 A.M., the subject applied a double-dose of NasoCell (1.75% CGP by weight) via nasal inhalation in each nostril. At about 11:30 AM, the subject's symptoms were much improved. The subject then self-administered another dose of NasoCell in each nostril. […] The subject had no trouble breathing while they were eating during lunch. […] The subject's throat was cleared of any obstructions and breathing sounds, and was wide open. The subject's nasal passages were reopened and voice cleared from an earlier morning huskiness, characteristic of a post nasal drip condition. It is noteworthy that this subject observed that after some weeks of usage, much reduced usage was required to “maintain”, and that this included the skipping of usage altogether, some days.

[2] = test system: ragweed sensitized Beagle dogs; test: Ragweed-induced nasal congestion, nasal cavity volume by acoustic rhinometry; type: in vivo
Text: Beagle dogs immunized with ragweed (RW) as puppies develop allergic immune responses. These allergic dogs show elevated total and specific serum IgE and increased numbers of eosinophils in their blood and lungs, as well as an increase in airway resistance and a decrease in dynamic compliance after a challenge with RW by inhalation or local instillation in defined lung lobes. Additionally, these dogs develop increased nasal congestion and inflammation following RW challenge in the nose.
Ragweed sensitized beagle dogs (n=5) with preexisiting nasal and airway allergic responses were utilized in the animal study described in this Example. Dogs served as their own control and initially were treated with vehicle (sterile water) and then rested for 5 weeks prior to receiving the test compound. […] Based on the aerosol testing only 1.6 mg/dog could be delivered by inhalation during a 15 minute exposure (20 mg/ml solution). […]
FIG. 1 summarizes the study design for characterizing the effects of CGP on rhinitis symptoms in ragweed sensitized Beagle dogs. The baseline nasal cavity volume was first measured 3 days (day −3) before each of the vehicle and CGP treatments. […]
Treatment occurred on Days 0 to 5 (only AM on Day 5). […] The pH of the compound (as administered for nasal inhalation) was recorded prior to administration. […]
Acoustic rhinometery was measured on experimental Days 3, 4, and 5. […]

[3] = forced nasal lavage or spray/mist

Substance: calcium glycerophosphate
- coughing [1, 3]: complete cessation of coughing
- reduction of post nasal drip [1, 3]: 95-98%
- decreased drainage ([1]; forced nasal lavage, 1.5-7.5% by weight CGP, about 10-20 minutes after the lavage): 90%
- throat-clearing diminished compared with prior state ([1]; forced nasal lavage, about 20-60 minutes after the lavage): about 90%
- symptoms (drip, cough, breathing) ([1]; forced nasal lavage, about 1 hr to 12/24 hr after the lavage): no drip, no cough, and easy open breathing
- onset of relieving effects ([1]; nasal spray/mist, about 2% to 3.75% by weight CGP, two sprays per nostril): almost instantaneously upon application
- duration of benefits post application ([1]; nasal spray/mist, about 2% to 3.75% by weight CGP): about four to eight hours
- night breathing ([1]; single spray per nostril at bedtime): appeared to produce better night breathing
- attenuation of nasal congestion at individual time points ([2]; 15 to 90 minutes post ragweed, Bonferroni posttest p<0.05): statistically significant at all time points from 15 to 90 minutes post ragweed
- AUC of the change in nasal cavity volume between 0 and 90 min ([2]; vs vehicle control, n=5, Paired t-test p=0.0092): significantly increased
